Here are results for two compounds from paper PMC4016748, “Using ^15N-Ammonium to Characterise and Map Potassium Binding Sites in Proteins by NMR Spectroscopy” (Chembiochem, 2014).

Test [1] concerns the target T1, DnaK-ABD (Thermus thermophilus, UniProt Q56235). To be noted: 150 mM 15NH4Cl, 5 mM MgCl2, 0.5 mM ADP, 50 mM phosphate, 1 mM DTT, pH 7.5; two sites; 15N-labelled compound.
In the next test the target is HDAC8 (Homo sapiens, UniProt Q9BY41). The test is described as follows: biochemical.
Chain of HDAC8 (Q9BY41 whole entry): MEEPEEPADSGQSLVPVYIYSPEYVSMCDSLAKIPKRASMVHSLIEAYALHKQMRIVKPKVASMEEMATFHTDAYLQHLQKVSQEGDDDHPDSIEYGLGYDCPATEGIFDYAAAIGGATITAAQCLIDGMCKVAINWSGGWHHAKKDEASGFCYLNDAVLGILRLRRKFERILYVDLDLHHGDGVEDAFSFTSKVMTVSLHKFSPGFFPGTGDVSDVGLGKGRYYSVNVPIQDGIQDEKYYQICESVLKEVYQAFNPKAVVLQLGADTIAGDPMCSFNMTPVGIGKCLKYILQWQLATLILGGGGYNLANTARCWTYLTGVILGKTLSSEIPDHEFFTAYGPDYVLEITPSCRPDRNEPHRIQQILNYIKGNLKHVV
Test [2] concerns the target T1, DnaK-ABD. The test can be described thus: 1H, […] HSQC NMR of bound […]NH4+ (indirect). In kind it is binding. To be noted: 0.5 mM ADP added together with 50 mM phosphate; 150 mM 15NH4Cl, 5 mM MgCl2, 1 mM DTT, pH 7.5.

One may read the Kd as the concentration at which binding is half-saturated. A higher Kd goes with weaker binding.

T1 sequence (Q56235 1-381): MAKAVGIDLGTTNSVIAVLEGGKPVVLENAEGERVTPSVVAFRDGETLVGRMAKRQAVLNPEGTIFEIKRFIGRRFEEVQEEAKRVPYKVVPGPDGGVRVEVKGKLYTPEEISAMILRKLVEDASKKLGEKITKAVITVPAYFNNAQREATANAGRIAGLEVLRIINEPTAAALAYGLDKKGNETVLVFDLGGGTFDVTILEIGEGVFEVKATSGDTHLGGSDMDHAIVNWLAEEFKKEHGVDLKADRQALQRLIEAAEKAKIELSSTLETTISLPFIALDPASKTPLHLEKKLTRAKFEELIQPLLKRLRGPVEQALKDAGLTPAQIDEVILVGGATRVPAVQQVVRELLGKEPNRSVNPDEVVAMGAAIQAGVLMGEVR

As to `N` [15NH4+], on DnaK-ABD [1], the “1H,15N HSQC NMR and 15N-edited NOESY” value was “addition of ADP and Pi resulted in the appearance of two clear peaks”. This compound came in with a Kd at HDAC8 of 13 ± 8 mM.

As for `Nc1ncnc2c1ncn2[C@@H]1O[C@H](COP(=O)(O)OP(=O)(O)O)[C@@H](O)[C@H]1O` [ADP], the “1H,15N HSQC NMR of bound 15NH4+ (indirect)” value at DnaK-ABD [2] is “binding of ADP and Pi protects the ammonium protons from solvent exchange”.
